Measurements: publication PMC12452952, “Subtype-specific structural features of the hearing loss–associated human P2X2 receptor” (Proceedings of the National Academy of Sciences of the …, 2025)

Molecular target: T1, human P2X2 receptor (hP2X2R) (Homo sapiens, UniProt Q9UBL9)
T1 construct: gene P2RX2; full-length wild-type
T1 sequence (Q9UBL9 1-471): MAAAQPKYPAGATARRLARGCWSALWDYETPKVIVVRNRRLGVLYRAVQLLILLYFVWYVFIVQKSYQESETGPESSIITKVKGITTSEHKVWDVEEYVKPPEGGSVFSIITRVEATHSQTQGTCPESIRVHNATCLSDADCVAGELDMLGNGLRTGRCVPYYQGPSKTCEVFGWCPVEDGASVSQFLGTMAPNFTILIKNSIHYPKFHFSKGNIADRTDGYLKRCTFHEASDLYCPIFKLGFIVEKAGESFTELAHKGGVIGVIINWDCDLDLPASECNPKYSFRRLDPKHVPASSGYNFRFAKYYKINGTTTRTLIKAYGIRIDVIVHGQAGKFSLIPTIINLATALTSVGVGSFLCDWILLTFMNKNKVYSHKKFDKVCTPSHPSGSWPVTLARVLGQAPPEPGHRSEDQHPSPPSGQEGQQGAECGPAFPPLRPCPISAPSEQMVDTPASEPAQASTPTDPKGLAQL
Assay: cryo-EM structures of ATP-bound homotrimer ([…] and […] Å); EC50 by two-electrode voltage clamp in Xenopus oocytes (divalent-free)
Format: cell-based

## Nc1ncnc2c1ncn2[C@@H]1O[C@H](COP(=O)(O)OP(=O)(O)OP(=O)(O)O)[C@@H](O)[C@H]1O [ATP]
  EC50: 156 ± 96 nM
